# Measured values taken from publication PMC13621370, “Targeting Telomere Shelterin Protein TPP1 with Elbasvir: Induction of Autophagy and Suppression of Esophageal Cancer Tumorigenesis” (Anti-Cancer Agents in Medicinal Chemistry, 2025).
# Biological target: T1, telomere shelterin protein TPP1 (Homo sapiens, UniProt Q96AP0)
# T1 construct: gene ACD; endogenous protein in RIPA lysate of KYSE150 and TE1 cells; not purified; 2I46 used only for docking
# T1 sequence (Q96AP0 1-458): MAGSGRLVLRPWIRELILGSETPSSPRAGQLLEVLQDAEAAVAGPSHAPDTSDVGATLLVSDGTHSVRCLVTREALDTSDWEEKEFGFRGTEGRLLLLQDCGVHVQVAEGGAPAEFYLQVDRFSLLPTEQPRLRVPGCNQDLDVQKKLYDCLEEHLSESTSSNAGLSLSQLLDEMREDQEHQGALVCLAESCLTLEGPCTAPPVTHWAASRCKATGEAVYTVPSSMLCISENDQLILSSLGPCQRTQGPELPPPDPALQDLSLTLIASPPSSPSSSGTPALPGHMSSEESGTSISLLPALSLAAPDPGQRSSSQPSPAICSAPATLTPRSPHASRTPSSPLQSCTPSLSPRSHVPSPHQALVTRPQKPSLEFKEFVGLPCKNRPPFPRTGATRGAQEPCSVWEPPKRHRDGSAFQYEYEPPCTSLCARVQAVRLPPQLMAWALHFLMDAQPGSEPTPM
# Assay: DARTS (pronase protection, Western blot of TPP1)
# Format: biochemical
# Settings: 400 uM Elbasvir, cell lysate, ambient temperature, 2 h, then pronase 20 min
smiles,measurement,value
COC(=O)N[C@H](C(=O)N1CCC[C@H]1c1ncc(-c2ccc3c(c2)O[C@@H](c2ccccc2)n2c-3cc3cc(-c4cnc([C@@H]5CCCN5C(=O)[C@@H](NC(=O)OC)C(C)C)[nH]4)ccc32)[nH]1)C(C)C [Elbasvir],"DARTS (pronase protection, Western blot of TPP1)","the presence of Elbasvir increased the stability of TPP1 protein, protecting it from proteolysis"
